Structures can show the parent of a compound that is named as a salt.
Test system: Yoshida ascitogenic tumour
Experiment: Sprague-Dowley rats inoculated with Yoshida ascitogenic tumour, treatment
Assay type: in vivo
Set-up: surviving animals (mortality curve): unit not given here
Procedure: Yoshida tumour is a transplantable, ascitogenic experimental tumour consisting of histiocyte-like immortalized cells.
The tumour causes, on the average 7 days after the intraperitoneal inoculation in Sprague-Dowley rat, the formation of 120-150 ml of ascites which reappears 3-4 days after complete emptying of the peritoneal cavity and induces death of all the animals within 14-16 days after inoculation.
300 Sprague-Dowley rats (4 months old, mean weight: 200 g), under standard feeding and temperature conditions (25° C.), were inoculated with Yoshida tumour. The onset and evolution of the tumour were checked by daily observation and weighing. One week after the inoculation of the tumour, rats were divided in 6 groups and treated as follows:
Group 1: 50 rats were subjected, on day 8 to 14, to daily emptying of 5 ml of ascitic fluid which was substituted with 5 ml of saline solution;
Group 2: 50 rats were subjected, on day 8 to 14, to daily emptying of 5 ml of ascitic fluid which was substituted with 50 mg of L-aC diluted in 5 ml of saline solution;
Group 3: 25 rats were subjected, on day 8 to 14, to daily emptying of 5 ml of ascitic fluid which was substituted with 80 mg of L-aC diluted in 5 ml of saline solution;
Group 4: 25 rats were subjected, on day 8 to 14, to daily emptying of 5 ml of ascitic fluid which was substituted with 120 mg of L-aC diluted in 5 ml of saline solution;
Group 5: 100 rats were subjected, on day 8 to 14, to evacuation on alternate days of 5 ml of ascitic fluid which was substituted with 25 mg of L-aC diluted in 5 ml of saline solution;
Group 6: 50 rats were used as control and received no treatment.

CC(=O)OC(CC(=O)[O-])C[N+](C)(C)C [L-aC, L-acetylcarnitine hydrochloride]
necroscopy finding (6 animals sacrified at end of observation): no presence of the disease
animals died during further treatment (47 Group 5 survivors treated a further 2 weeks): 21
surviving animals (mortality curve) (Group 2, 50 mg lac i.p. daily day 8-14, day 0 transplant): 50
surviving animals (mortality curve) (Group 2, 50 mg lac i.p. daily day 8-14, day 1): 50
surviving animals (mortality curve) (Group 2, 50 mg lac i.p. daily day 8-14, day 2): 50
surviving animals (mortality curve) (Group 2, 50 mg lac i.p. daily day 8-14, day 3): 50
surviving animals (mortality curve) (Group 2, 50 mg lac i.p. daily day 8-14, day 4): 50
surviving animals (mortality curve) (Group 2, 50 mg lac i.p. daily day 8-14, day 5): 50
surviving animals (mortality curve) (Group 2, 50 mg lac i.p. daily day 8-14, day 6): 50
surviving animals (mortality curve) (Group 2, 50 mg lac i.p. daily day 8-14, day 7): 50
surviving animals (mortality curve) (Group 2, 50 mg lac i.p. daily day 8-14, day 8): 42
surviving animals (mortality curve) (Group 2, 50 mg lac i.p. daily day 8-14, day 9): 32
surviving animals (mortality curve) (Group 2, 50 mg lac i.p. daily day 8-14, day 10): 21
surviving animals (mortality curve) (Group 2, 50 mg lac i.p. daily day 8-14, day 11): 17
surviving animals (mortality curve) (Group 2, 50 mg lac i.p. daily day 8-14, day 12): 12
surviving animals (mortality curve) (Group 2, 50 mg lac i.p. daily day 8-14, day 13): 5
surviving animals (mortality curve) (Group 2, 50 mg lac i.p. daily day 8-14, day 14): 0
day after inoculation by which all animals died (Group 2, 50 rats, 50 mg L-aC i.p. daily day 8 to 14): ≤ 14 days
surviving animals (mortality curve) (Group 3, 80 mg lac i.p. daily from day 8, day 0 transplant): 25
surviving animals (mortality curve) (Group 3, 80 mg lac i.p. daily from day 8, day 1): 25
surviving animals (mortality curve) (Group 3, 80 mg lac i.p. daily from day 8, day 2): 25
surviving animals (mortality curve) (Group 3, 80 mg lac i.p. daily from day 8, day 3): 25
surviving animals (mortality curve) (Group 3, 80 mg lac i.p. daily from day 8, day 4): 25
surviving animals (mortality curve) (Group 3, 80 mg lac i.p. daily from day 8, day 5): 25
surviving animals (mortality curve) (Group 3, 80 mg lac i.p. daily from day 8, day 6): 25
surviving animals (mortality curve) (Group 3, 80 mg lac i.p. daily from day 8, day 7): 25
surviving animals (mortality curve) (Group 3, 80 mg lac i.p. daily from day 8, day 8): 12
surviving animals (mortality curve) (Group 3, 80 mg lac i.p. daily from day 8, day 9): 5
surviving animals (mortality curve) (Group 3, 80 mg lac i.p. daily from day 8, day 10): 0
time after 1st administration by which all animals died (Group 3, 25 rats, 80 mg L-aC i.p.): ≤ 72 h
day after inoculation by which all animals died (Group 3, 25 rats, 80 mg L-aC i.p. daily from day 8): ≤ 10 days
surviving animals (mortality curve) (Group 4, 120 mg lac i.p. daily from day 8, day 0 transplant): 25
surviving animals (mortality curve) (Group 4, 120 mg lac i.p. daily from day 8, day 1): 25
surviving animals (mortality curve) (Group 4, 120 mg lac i.p. daily from day 8, day 2): 25
surviving animals (mortality curve) (Group 4, 120 mg lac i.p. daily from day 8, day 3): 25
surviving animals (mortality curve) (Group 4, 120 mg lac i.p. daily from day 8, day 4): 25
surviving animals (mortality curve) (Group 4, 120 mg lac i.p. daily from day 8, day 5): 25
surviving animals (mortality curve) (Group 4, 120 mg lac i.p. daily from day 8, day 6): 25
surviving animals (mortality curve) (Group 4, 120 mg lac i.p. daily from day 8, day 7): 25
surviving animals (mortality curve) (Group 4, 120 mg lac i.p. daily from day 8, day 8): 0
time from 1st administration by which all animals died (Group 4, 25 rats, 120 mg L-aC i.p.): ≤ 24 h
day after inoculation by which all animals died (Group 4, 25 rats, 120 mg L-aC i.p. from day 8): ≤ 8 days
surviving animals (mortality curve) (Group 5, 25 mg lac i.p. alternate days day 8-14, day 0 transplant): 100
surviving animals (mortality curve) (Group 5, 25 mg lac i.p. alternate days day 8-14, day 1): 100
surviving animals (mortality curve) (Group 5, 25 mg lac i.p. alternate days day 8-14, day 2): 100
surviving animals (mortality curve) (Group 5, 25 mg lac i.p. alternate days day 8-14, day 3): 100
surviving animals (mortality curve) (Group 5, 25 mg lac i.p. alternate days day 8-14, day 4): 100
surviving animals (mortality curve) (Group 5, 25 mg lac i.p. alternate days day 8-14, day 5): 100
surviving animals (mortality curve) (Group 5, 25 mg lac i.p. alternate days day 8-14, day 6): 100
surviving animals (mortality curve) (Group 5, 25 mg lac i.p. alternate days day 8-14, day 7): 96
surviving animals (mortality curve) (Group 5, 25 mg lac i.p. alternate days day 8-14, day 8): 91
surviving animals (mortality curve) (Group 5, 25 mg lac i.p. alternate days day 8-14, day 9): 83
surviving animals (mortality curve) (Group 5, 25 mg lac i.p. alternate days day 8-14, day 10): 79
surviving animals (mortality curve) (Group 5, 25 mg lac i.p. alternate days day 8-14, day 11): 61
surviving animals (mortality curve) (Group 5, 25 mg lac i.p. alternate days day 8-14, day 12): 50
surviving animals (mortality curve) (Group 5, 25 mg lac i.p. alternate days day 8-14, day 13): 48
surviving animals (mortality curve) (Group 5, 25 mg lac i.p. alternate days day 8-14, day 14): 47
animals still alive (Group 5, 100 rats, 25 mg L-aC i.p. alternate days, day 15 after inoculation): 47
ascites amount in survivors (Group 5, day 15 after inoculation): remarkable reduction of the ascites amount
general condition of survivors (Group 5, day 28): good health
ascitic fluid in survivors (Group 5, day 28 after inoculation): complete disappearance of the ascitic fluid
deaths during further observation (Group 5 survivors, further 6 weeks): no deaths occurred
animals still alive (of 47 Group 5 survivors, day 28 after inoculation): 26

Reference: patent publication US6673839B1, “Pharmaceutical compositions with antitumour activity” (Universita' Degli Studi di Catania, priority 1998, dated 2004)
